From patent US20210024482A1, “Novel Group of STAT3 Pathway Inhibitors and Cancer Stem Cell Pathway Inhibitors” (Sumitomo Dainippon Pharma Oncology, Inc., priority 2007, published 2021)
pIC50: −log10 of the molar value. Each block holds one compound with its values, some of them ahead of it.

What was measured:
CD44^high CSCs = assay: Sphere assay with CD44high CSCs; assay type: cell-based; settings: spheres grown 72 hours before challenge, FIGS. 10A and 10B
Description: A reliable method of measuring the self-renewal capacity of cell population if the ability to be cultured as spheres in the absence of serum or attachment. CD44^high FaDu or Hoechst side population cancer stem cells were cultured in ultra low attachment plates in cancer stem cell media (DMEM/F12, B27 Neurobasal supplement, 20 ng/ml EGF, 10 ng/ml FGF, 4 μg/ml insulin, and 0.4% BSA) to allow spheres formation. Typically, sphere formation was evaluated by microscopy after 10-14 days in culture and spheres with >50 cells were scored.
One of the hallmarks cancer stem cells is their ability to self-renew. A reliable method of measuring the self-renewal capacity of cell populations is the ability to be cultured as spheres in the absence of serum or attachment. To compare the ability of compound 401 to other targeted and chemotherapeutic agents, FACS-isolated CD44^high CSCs were grown as spheres for 72 hours before being challenged with a panel of therapeutic agents. […] Tarceva, Sutent, and Gleevec were added at approximately three times their reported therapeutic concentrations.

SW480 Hoechst SP cells = assay: MTT cell viability, SW480 Hoechst side population CSCs; assay type: cell-based; settings: for pIC50: Homo sapiens, SW480 Hoechst SP, 48 h
Description: (§1) To identify and isolate side population (SP) and non-SP fractions, SW480 cells were removed from the culture dish with trypsin and EDTA, pelleted by centrifugation, washed with phosphate-buffered saline (PBS), and resuspended at 37° C. in Dulbecco's modified Eagle's medium (DMEM) containing 2% FBS and 1 mM HEPES. The cells were then labeled with Hoechst 33342 (Invitrogen) at a concentration of 5 μg/mL. The labeled cells were incubated for 120 minutes at 37° C., either alone or with 50 μM verapamil (Sigma-Aldrich, St. Louis). After staining, the cells were suspended in Hanks' balanced saline solution (HBSS; Invitrogen) containing 2% FBS and 1 mM HEPES, passed a through 40 μm mesh filter, and maintained at 4° C. until flow cytometry analysis. The Hoechst dye was excited at 350 nm, and its fluorescence was measured at two wavelengths using a 450 DF10 (450/20 nm band-pass filter) and a 675LP (675 nm long-pass edge filter) optical filter. The gating on forward and side scatter was not stringent, and only debris was excluded,
(§2) For 3-(4,5 dimethylthiazol-2-yl)-2,5-diphenyltetrazolium (MTT) (Sigma-Aldrich, St. Louis, Mo.) analysis, cells were plated in 96 well plates at 10,000 cells per well. 24 hours after plating, compound was added to cells at indicated doses. 22 hours following compound addition, MTT was added to each well (0.5 mg/ml, final concentration) and plates were incubated for an additional 2 hours at 37° C. Medium was then aspirated and the formazan product was solubilized in 100 μl of isopropyl alcohol. The absorbance of each well was measured at 570 nm using a microplate reader.
The IC50 of compound 401 against the Hoechst side population was accessed in MTT assays and was compared to the IC50 against the non-side population.
In addition, we tested the activities of several other compounds against cancer stem cells. Briefly, freshly isolated CSCs (SW480 Hoechst SP cells or CD44^high FaDu cells) were exposed to a dose range (30-0.117 μM) of compound for 48 h before examining cell viability by MTT assay. IC50s were estimated by plotting the percentage of surviving cells. As shown in Table 4 and Table 5, compounds of present invention can target cancer stem cells.

Stat3 [1] = assay: Stat3 DNA binding assay (EMSA) with HeLa nuclear extracts; assay type: biochemical; settings: HeLa nuclear extract, FIG. 7A/7B
Description: Electrophoretic mobility shift assay (EMSA) was performed as described by the manufacturer (Li-Cor Biosciences, Lincoln, Nebr.). Briefly, nuclear extracts were made from HeLa cells using the NucBuster Protein Extraction Kit as described by the manufacturer (EMD Biosciences, San Diego, Calif.). 5 μg of nuclear extract was pre-incubated with the indicated dose of indicated compound for 30 minutes prior to a 15-minute incubation with the IR700-labeled consensus Stat3 oligonucleotide. Samples were then electrophoresed on a polyacrylamide gel and directly scanned using the Odyssey infrared imaging system (Li-Cor Biosciences). For the enzyme-linked immunosorbent assay (ELISA), 5 μg of nuclear extract was preincubated with indicated concentration of indicated compound for 30 minutes prior to the addition of biotinylated oligo (5′-Biotin-[…]-3′, SEQ ID NO. 1). Stat3-DNA complexes were then captured on streptavidin coated 96 well plates (Pierce, Rockford, Ill.). Bound complexes were then incubated with Stat3 polyclonal antibody (Santa Cruz Biotechnology, Santa Cruz, Calif.) followed by anti-rabbit HRP conjugated secondary antibody (GE Healthcare, Pittsburgh, Pa.). Bound antibody was then visualized by addition of TMB substrate (Pierce) and absorbance measured at 450 nm,
Nuclear extracts from HeLa cells, which contain constitutively activated Stat3 as detected by phoshporylation at the tyrosine 705 residue, were used to perform Stat3 EMSAs to monitor Stat3 DNA binding activity. Nuclear extracts were incubated with indicated compound prior to incubation with IR700-labeled Stat3 consensus oligonucleotide. Binding of Stat3 to the oligonucleotide was monitored by gel electrophoresis and detection using a LiCor Odyssey infrared scanner.

Stat3 [2] = assay: Stat3-luciferase (Stat3-Luc) reporter assay, OSM-stimulated HeLa cells; assay type: cell-based; settings: FIG. 6
Description: HeLa Cells were co-transfected with Stat3-luciferase (Stat3-Luc) reporter vector (Panomics, Fremont, Calif.) and Renilla luciferase (Promega, Madison, Wis.) using Lipofectamine 2000 as described by the manufacturer (Invitrogen). Following transfection, cells were maintained in medium containing 0.5% FBS for 24 hours. Cells were then treated with the indicated compound for 30 minutes prior to the addition of 25 ng/ml oncostatin M (OSM) (R&D Systems, Minneapolis, Minn.) to the medium. 6 hours following OSM addition, cells were harvested and levels of firefly and renilla luciferase were measured using the Dual-Glo Luciferase Assay System as described by the manufacturer (Promega).
Compounds were tested for their ability to inhibit Stat3 transcription activation activity in cells using a Stat3-luciferase (Stat3-luc) reporter construct. Cells transfected with Stat3-luc were cultured in reduced serum medium prior to addition of indicated compound for 30 minutes. Cells were then stimulated with 25 ng/ml oncostatin M (OSM) for 6 hours followed by detection of Stat3-luc reporter activity. […] AG490, a known inhibitor of the Jak-Stat pathway, was included as a positive control for Stat3 inhibition.

SW480 cells = assay: Hoechst side population staining of SW480 cells; assay type: cell-based; settings: treatment before Hoechst staining, FIG. 8A
Description: as §1
To confirm that this side population is enriched with cancer stem cells, a control set of SW480 cells were first treated with Verapamil, an inhibitor of ABC transporters, before stained with Hoechst.

FaDu cells = assay: MTT cell viability FaDu; assay type: cell-based; settings: Homo sapiens, Head and Neck, MTT 24 hours
Description: as §2
(§3) Cells plated in 96 well plates and treated with indicated compounds were subjected to MTT analysis at 24 hours following compound treatment to determine cell viability.

[3] = tested on: SW480 non-side population (NSP) cells; assay: MTT cell viability, SW480 non-side population; assay type: cell-based; settings: Homo sapiens, 48 h
Description: as §1
For 3-(4,5 dimethylthiazol-2-yl)-2,5-diphenyltetrazolium (MTT) (Sigma-Aldrich, St. Louis, Mo.) analysis, cells were plated in 96 well plates at 10,000 cells per well. 24 hours after plating, compound was added to cells at indicated doses. […] The absorbance of each well was measured at 570 nm using a microplate reader. […]

CD44^low FaDu cells = assay: MTT cell viability, CD44low FaDu cells; assay type: cell-based; settings: Homo sapiens, 48 h
CD44^high FaDu cells = assay: MTT cell viability, CD44high FaDu CSCs; assay type: cell-based; settings: Homo sapiens, 48 h
Description: CD44^high cells were isolated by FACS according to the methods described in Ponti et al, with slight modification. Briefly, after trypsinization and recovery of cells for 30 minutes at 37° C. in growth media, cells were pelleted at 400×g and were resuspended in PBS with 2% FBS and 1 mM EDTA at 1×10^6 cells/mL. Cells were then incubated on ice with a 1:100 dilution of CD44-FITC (BD Biosicences, San Diego, Calif.) for 15 minutes. Alternatively, CD24-PE (BD Bioscences, San Diego, Calif.) (1:100) was utilized for negative selection. After washing three times, cells were resuspended at 2×10^6/mL and passed through a […] mesh before sorting.
as §2
In addition, we tested the activities of several other compounds against cancer stem cells. […]

Paca2 cells = assay: MTT cell viability Paca2; assay type: cell-based; settings: PaCa-2; Paca2, Pancreas, MTT 24 hours
Description: as §2, §3

SMILES: COc1cccc2c1C(=O)c1c(O)c3c(c(O)c1C2=O)C[C@@](O)(C(=O)CO)C[C@@H]3O[C@H]1C[C@H](N)[C@H](O)[C@H](C)O1 [Doxorubicin, reference compound]
prevention of sphere proliferation (CD44^high CSCs): spheres were resistant
sensitivity of side population compared to non-side population (SW480 Hoechst SP cells; FIG. 8B): the side population is much more resistant than the non-side population

inhibition of Stat3 DNA binding activity (Stat3 [1]): can inhibit Stat3's DNA binding activity
SMILES: CC(=O)c1cc2c(o1)C(=O)c1cc(Cl)ccc1C2=O [Compound 416, 2-Acetyl-7-Chloro-naphtho[2,3-b]furan-4,9-dione]

SMILES: CC(=O)O[C@@]12CO[C@@H]1C[C@H](O)[C@@]1(C)C(=O)[C@H](O)C3=C(C)[C@@H](OC(=O)[C@H](O)[C@@H](NC(=O)OC(C)(C)C)c4ccccc4)C[C@@](O)([C@@H](OC(=O)c4ccccc4)[C@H]21)C3(C)C [docetaxel]
prevention of sphere proliferation (CD44^high CSCs): spheres were resistant

SMILES: O=C(c1ccccc1)c1cc2cc3ccccc3cc2s1 [Compound 1001, reference compound]
inhibition of OSM-stimulated Stat3 reporter activity (Stat3 [2]): did not inhibit OSM-stimulated Stat3 reporter activity even at a much higher concentration

SMILES: COc1ccc(CCN(C)CCCC(C#N)(c2ccc(OC)c(OC)c2)C(C)C)cc1OC (stereo not drawn) [Verapamil]
effect on Hoechst side population (SW480 cells): loss of the side population

SMILES: C=C(OP(=O)(OC)OC)C1=CC2C(=O)c3ccccc3C(=O)C2O1 (stereo not drawn) [Compound 4012, phosphoric acid 1-(4,9-dioxo-3a,4,9,9a-tetrahydro-naphtho[2,3-b]furan-2-yl)-vinyl ester dimethyl ester]
pIC50 (FaDu cells): 5.98
pIC50 [3]: 6.09
pIC50 (CD44^low FaDu cells): 6.12
pIC50 (CD44^high FaDu cells): 5.98
pIC50 (SW480 Hoechst SP cells): 6.24

pIC50 [3]: 6.47
pIC50 (SW480 Hoechst SP cells): 6.42
SMILES: C=C(OP(=O)(O)O)C1=CC2C(=O)c3ccccc3C(=O)C2O1 (stereo not drawn) [Compound 4011, phosphoric acid mono-[1-(4,9-dioxo-3a,4,9,9a-tetrahydro-naphtho[2,3-b]furan-2-yl)-vinyl] ester]
pIC50 (FaDu cells): 6.45
pIC50 (Paca2 cells): 6.35
pIC50 (CD44^low FaDu cells): 6.38
pIC50 (CD44^high FaDu cells): 6.57

inhibition of Stat3 DNA binding activity (Stat3 [1]): can inhibit Stat3's DNA binding activity
SMILES: CC(=O)c1cc2c(o1)C(=O)c1cc(F)ccc1C2=O [Compound 418, 2-Acetyl-7-Fluoro-naphtho[2,3-b]furan-4,9-dione]
